{"source": "paper PMC10382042", "about": "“Brevetoxin versus Brevenal Modulation of Human Nav1 Channels” (Marine Drugs, 2023)", "format_in_all_cases": "cell-based", "key": {"human Nav1.5 [1]": {"biological_target": "T1, human Nav1.5 (Homo sapiens, UniProt Q14524)", "T1 sequence (Q14524 whole entry)": "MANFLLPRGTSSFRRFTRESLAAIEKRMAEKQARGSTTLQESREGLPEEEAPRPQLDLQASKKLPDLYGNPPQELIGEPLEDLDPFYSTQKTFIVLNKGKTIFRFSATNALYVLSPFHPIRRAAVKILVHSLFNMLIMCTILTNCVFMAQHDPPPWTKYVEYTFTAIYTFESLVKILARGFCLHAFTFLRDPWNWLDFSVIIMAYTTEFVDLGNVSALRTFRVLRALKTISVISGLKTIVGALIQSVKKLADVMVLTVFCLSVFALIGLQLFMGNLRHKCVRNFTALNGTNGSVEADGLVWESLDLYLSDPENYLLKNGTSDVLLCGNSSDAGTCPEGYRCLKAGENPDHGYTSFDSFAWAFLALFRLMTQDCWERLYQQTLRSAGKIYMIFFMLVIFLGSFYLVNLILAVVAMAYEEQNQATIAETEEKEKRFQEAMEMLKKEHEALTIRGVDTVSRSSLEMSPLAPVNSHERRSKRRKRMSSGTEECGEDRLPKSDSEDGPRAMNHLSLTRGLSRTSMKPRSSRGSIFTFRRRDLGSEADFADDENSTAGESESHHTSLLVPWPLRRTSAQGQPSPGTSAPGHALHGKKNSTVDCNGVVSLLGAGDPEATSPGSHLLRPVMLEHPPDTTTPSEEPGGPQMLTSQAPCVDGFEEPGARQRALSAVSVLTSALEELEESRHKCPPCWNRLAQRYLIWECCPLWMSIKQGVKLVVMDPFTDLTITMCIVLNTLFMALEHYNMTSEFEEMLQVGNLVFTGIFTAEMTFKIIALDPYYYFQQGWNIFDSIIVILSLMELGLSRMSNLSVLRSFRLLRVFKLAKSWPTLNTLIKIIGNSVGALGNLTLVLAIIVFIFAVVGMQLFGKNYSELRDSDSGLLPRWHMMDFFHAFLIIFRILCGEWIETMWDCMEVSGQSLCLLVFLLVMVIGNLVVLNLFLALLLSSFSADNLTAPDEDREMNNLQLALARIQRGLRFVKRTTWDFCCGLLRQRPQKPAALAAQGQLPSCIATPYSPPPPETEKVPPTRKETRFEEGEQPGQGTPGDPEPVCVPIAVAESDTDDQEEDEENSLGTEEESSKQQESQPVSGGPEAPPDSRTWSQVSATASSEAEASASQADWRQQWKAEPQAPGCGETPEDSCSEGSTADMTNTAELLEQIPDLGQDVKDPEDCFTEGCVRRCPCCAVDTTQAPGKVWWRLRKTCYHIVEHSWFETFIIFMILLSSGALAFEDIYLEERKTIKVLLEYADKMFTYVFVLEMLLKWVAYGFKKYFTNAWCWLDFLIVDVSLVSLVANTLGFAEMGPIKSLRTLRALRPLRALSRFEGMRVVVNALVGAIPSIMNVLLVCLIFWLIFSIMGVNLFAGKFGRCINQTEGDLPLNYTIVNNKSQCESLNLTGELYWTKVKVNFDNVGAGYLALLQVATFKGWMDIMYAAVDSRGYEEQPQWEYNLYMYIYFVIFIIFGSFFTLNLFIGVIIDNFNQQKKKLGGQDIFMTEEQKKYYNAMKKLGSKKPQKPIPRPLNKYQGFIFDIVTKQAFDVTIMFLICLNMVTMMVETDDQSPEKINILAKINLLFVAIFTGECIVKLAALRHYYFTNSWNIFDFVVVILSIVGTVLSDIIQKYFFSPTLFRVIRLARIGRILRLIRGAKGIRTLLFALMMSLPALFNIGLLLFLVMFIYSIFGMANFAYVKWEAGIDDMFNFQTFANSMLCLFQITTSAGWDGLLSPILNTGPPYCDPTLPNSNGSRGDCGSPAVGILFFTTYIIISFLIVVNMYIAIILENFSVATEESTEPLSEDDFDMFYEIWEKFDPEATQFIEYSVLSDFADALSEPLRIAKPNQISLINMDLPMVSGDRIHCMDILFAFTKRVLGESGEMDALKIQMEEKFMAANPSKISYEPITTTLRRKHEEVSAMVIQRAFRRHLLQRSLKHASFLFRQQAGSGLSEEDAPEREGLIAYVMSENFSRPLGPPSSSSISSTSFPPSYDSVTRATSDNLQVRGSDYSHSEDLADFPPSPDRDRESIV", "assay": "cell-based", "details": "for EC50: read-out: Nav1.5 Ipeak EC50", "method": "(§1) Functional modulation of recombinant human voltage-gated sodium (Nav) channels exposed to marine PbTx-3 and brevenal was assessed by automated patch-clamp electrophysiology. Neuronal Nav1.2 (CNS) and Nav1.7 (PNS), in addition to muscle Nav1.4 (skeletal) and Nav1.5 (cardiac) sodium channels, were patch-clamped in mammalian cells. Whole-cell currents mediated by human Nav1.4 and Nav1.7 overexpressed in CHO-K1 cells, as well as human Nav1.2 and Nav1.5 overexpressed in HEK293 cells, were recorded at room temperature. Currents were elicited by 25 ms test pulses to −20 mV from a holding potential (Vh) of −120 mV, delivered for 5 min at 0.1 Hz, after each full-bath solution exchange to allow current amplitude and kinetics to reach a steady state.\n(§2) Current traces were scaled to maximal Ipeak and are presented as insets in Figure 2 to underline the effects (or lack thereof) of PbTx-3 and brevenal on the current kinetics of the four Nav isoforms studied. Inactivation time constants (τinact) in control and the presence of PbTx-3 and brevenal were estimated by exponential fits (see Methods) to the current decay between 15% and 85% of the depolarizing pulse. Single exponential fits adequately described τinact for the neuronal and the skeletal muscle Nav isoforms, whereas a double exponential fit was required to approximate open channel inactivation of the cardiac Nav current. Consistent with the enhancement of Ilate observed for Nav1.2, Nav1.4, and Nav1.5 in the presence of PbTx-3, significant concentration-dependent increases in the Yinf asymptote were detected (Tables S1–S3). These were mirrored by brevenal exposure in Nav1.2- and Nav1.4-mediated currents. Nevertheless, the estimated τinacts appeared insensitive to PbTx-3 and brevenal modification, with the notable exception of Nav1.4, for which high concentrations of PbTx-3 and brevenal caused a measurable slowing of the open channel inactivation time constant (Table S2).\n(§3) Recording solutions: The extracellular solution contained (in mM) 140 NaCl, 5 KCl, 2 CaCl2, 2 MgCl2, 10 glucose, and 10 HEPES (pH 7.4 with NaOH, 298 ± 3 mOsmol/k g). Control intracellular solution (in mM): 60 CsF, 70 CsCl, 10 EGTA, 10 glucose, and 10 HEPES (pH 7.2 with CsOH, 285 ± 3 mOsmol/kg). Intracellular exposure to brevenal (1 μM) was achieved by including it in the control intracellular solution during chip filling.\n(§4) HEK293 cells heterologously expressing human Nav1.2 (Scottish Biomedical, a kind gift from the Petrous lab, Florey Institute of Neuroscience and Mental Health, Melbourne, VIC Australia) and Nav1.5 (ChanTest Corp., Cleveland, OH, USA) were cultured in DMEM containing 10% v/v FBS and selection antibiotics to enable stable expression as per the manufacturer’s recommendation. CHOK1 expressing Nav1.4 and Nav1.7 (ChanTest) was cultured in DMEM/F12 containing 10% v/v FBS and selection antibiotics supporting stable expression as recommended by the manufacturer. Cells were maintained in a humidified 5% CO2 incubator at 37 °C, grown in T25 flasks to 70–80% confluence, and passaged every 3–4 days using TrypLE Express (Invitrogen). After harvesting with TrypLE, cells were resuspended to 10^5 cells/mL in cold extracellular solution and allowed to recover for 30 min at 4 °C before recording.\n(§5) Electrophysiology: Automated patch-clamp (APC) recordings were performed in a PatchLiner Octo (Nanion Technologies GmbH, Munich, Germany) equipped with two EPC-10 quadro patch-clamp amplifiers (HEKA Electronik, Lambrecht/Pfalz, Germany). PatchControl HT (Nanion) was used for cell capture, seal formation, and establishment of the whole-cell configuration, whilst voltage was controlled and currents were sampled with PatchMaster (HEKA Electronics). Recordings were performed under the whole-cell configuration using single-hole planar medium resistance NPC-16 chips (Rchip, resistance of ~2.5 MΩ) at room temperature (22–24 °C).\n(§6) Cells between passages 6 and 12 were used. […]"}, "human Nav1.5 [2]": {"biological_target": "T1, human Nav1.5", "assay": "Automated patch-clamp I-V relationship (voltage dependence of activation, Gmax), Nav1.5", "method": "(§7) The voltage dependence of recombinant Nav channel-mediated currents exposed to PbTx-3 and brevenal was evaluated using current–voltage (I-V) relationships built for Ipeak and Ilate elicited by a standard stimulation protocol (25 ms, −100 to +60 mV, Vh −120 mV, 0.1 Hz).\n(§8) The effects of extracellular exposure to PbTx-3 (PbTx-3o = 1 μM) and brevenal (Brevenalo = 10 μM) on the activation of Nav channels in neuronal and muscle cells were examined under normal intracellular ionic conditions. […] To investigate the possibility of overlapping binding of these compounds within Nav channels, Nav whole-cell currents were recorded using an intracellular solution supplemented with brevenal (Brevenali = 1 μM). After equilibration, extracellular PbTx-3o (1 μM) was applied and its modulatory effects over the current kinetics and voltage dependence of activation were compared.\n(§9) Figure 4 and Figure 5 display representative current traces mediated by human recombinant Nav channels in control and upon exposure to PbTx-3 and brevenal. I-V plots from the normalized peak and late (when present) currents amplitudes (Ipeak/Ipeak^max and Ilate/Ipeak^max) were fitted to a Boltzmann function rendering the half-maximal activation potential (V0.5) and normalized macroscopic conductance (Gmax) parameters (see Section 4). The changes in V0.5 (ΔV0.5 = V0.5^Comp − V0.5^Ctr) and relative Gmax (Gmax^Rel = Gmax^Comp/Gmax^Ctr) observed in the presence of PbTx-3 and brevenal and control conditions were then calculated and compared for all assayed conditions.\nas §3, §5\n(§10) Peak I–V curves were fitted using:I(V) = (V − Vrev) × Gmax/(1 + exp ((V0.5 − V)/Vslope) where I is the macroscopic current, V is the command potential, Vrev is the reversal potential (mV), Gmax is the maximal conductance, V0.5 is the half-activation potential (mV), and Vslope is the slope factor (mV/e-fold)."}, "human Nav1.2": {"biological_target": "human Nav1.2 (Homo sapiens, UniProt Q99250)", "sequence (Q99250 whole entry)": "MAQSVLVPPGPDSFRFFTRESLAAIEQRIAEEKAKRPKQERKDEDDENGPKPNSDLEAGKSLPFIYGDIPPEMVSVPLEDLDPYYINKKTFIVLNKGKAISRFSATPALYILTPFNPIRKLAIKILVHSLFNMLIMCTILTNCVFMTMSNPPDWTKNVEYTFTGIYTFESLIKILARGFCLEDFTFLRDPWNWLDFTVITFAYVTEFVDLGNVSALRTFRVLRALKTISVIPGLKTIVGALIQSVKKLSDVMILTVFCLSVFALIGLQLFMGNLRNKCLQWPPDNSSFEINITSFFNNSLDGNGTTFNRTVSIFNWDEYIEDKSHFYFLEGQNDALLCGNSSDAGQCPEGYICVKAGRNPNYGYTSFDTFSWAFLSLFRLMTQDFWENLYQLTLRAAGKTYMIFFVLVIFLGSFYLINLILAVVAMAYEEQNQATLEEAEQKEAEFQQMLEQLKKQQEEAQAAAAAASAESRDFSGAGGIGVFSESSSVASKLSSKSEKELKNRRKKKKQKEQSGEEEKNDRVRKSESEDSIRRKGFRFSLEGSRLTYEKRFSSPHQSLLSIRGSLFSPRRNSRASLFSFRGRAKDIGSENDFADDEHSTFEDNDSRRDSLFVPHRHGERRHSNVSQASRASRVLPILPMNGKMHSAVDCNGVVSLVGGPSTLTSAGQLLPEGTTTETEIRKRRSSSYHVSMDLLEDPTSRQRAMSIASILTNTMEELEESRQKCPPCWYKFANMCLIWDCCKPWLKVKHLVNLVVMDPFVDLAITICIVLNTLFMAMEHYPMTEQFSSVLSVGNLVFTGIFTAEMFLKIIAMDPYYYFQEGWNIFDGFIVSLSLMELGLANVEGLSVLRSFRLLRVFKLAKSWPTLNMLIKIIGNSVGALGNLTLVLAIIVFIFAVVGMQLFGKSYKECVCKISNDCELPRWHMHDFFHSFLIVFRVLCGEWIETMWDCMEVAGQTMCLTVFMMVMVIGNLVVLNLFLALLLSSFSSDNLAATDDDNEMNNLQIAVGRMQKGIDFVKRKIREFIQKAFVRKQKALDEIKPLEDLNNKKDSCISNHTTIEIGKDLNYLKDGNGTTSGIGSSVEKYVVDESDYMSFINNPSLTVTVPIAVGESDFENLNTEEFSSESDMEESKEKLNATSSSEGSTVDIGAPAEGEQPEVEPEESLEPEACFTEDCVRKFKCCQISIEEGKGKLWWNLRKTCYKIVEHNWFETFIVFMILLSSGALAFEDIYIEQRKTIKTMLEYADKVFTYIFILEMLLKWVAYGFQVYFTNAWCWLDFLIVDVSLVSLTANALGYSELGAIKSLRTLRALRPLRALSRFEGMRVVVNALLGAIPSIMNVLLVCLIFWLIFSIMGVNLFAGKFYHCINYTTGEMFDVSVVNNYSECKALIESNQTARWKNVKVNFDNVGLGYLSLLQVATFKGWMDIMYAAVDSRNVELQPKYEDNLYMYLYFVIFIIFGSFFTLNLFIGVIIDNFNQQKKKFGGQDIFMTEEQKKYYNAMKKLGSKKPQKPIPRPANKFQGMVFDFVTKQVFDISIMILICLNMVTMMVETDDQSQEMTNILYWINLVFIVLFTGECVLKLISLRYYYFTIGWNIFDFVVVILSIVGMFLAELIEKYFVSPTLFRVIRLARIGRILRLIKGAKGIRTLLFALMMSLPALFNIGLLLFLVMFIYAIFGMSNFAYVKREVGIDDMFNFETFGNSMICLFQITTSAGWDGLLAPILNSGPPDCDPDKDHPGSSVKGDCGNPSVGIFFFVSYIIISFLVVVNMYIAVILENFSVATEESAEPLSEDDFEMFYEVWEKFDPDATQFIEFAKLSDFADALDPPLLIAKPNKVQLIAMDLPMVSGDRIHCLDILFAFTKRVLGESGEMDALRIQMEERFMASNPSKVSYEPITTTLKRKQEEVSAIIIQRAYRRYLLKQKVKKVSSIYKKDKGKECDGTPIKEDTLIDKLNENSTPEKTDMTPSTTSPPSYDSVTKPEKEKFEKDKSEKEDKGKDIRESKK", "assay": "Automated patch-clamp I-V relationship (voltage dependence of activation, Gmax), Nav1.2", "method": "as §7, §8, §9, §3, §5, §10"}, "human Nav1.7": {"biological_target": "human Nav1.7 (Homo sapiens, UniProt Q15858)", "assay": "Automated patch-clamp, concentration-response and inactivation fits, Nav1.7 in CHO-K1", "method": "as §1, §2, §3, §4, §5, §6"}, "[3]": {"details": "extracellular brevenal 10 μM, n = 5"}}, "note": "“And” between values parts separate entries of the source, which are not always exact repeats. Identical values can stand only once. Like-named read-outs stand apart in the source and are kept apart here.", "data": [{"smiles": "C=C/C=C\\CC[C@H]1O[C@H]2CC[C@@]3(C)O[C@H]4[C@@H](O)C[C@@]5(C)O[C@@H](CC/C=C(C)/C(C)=C/C=O)[C@@H](C)C[C@H]5O[C@@H]4C[C@@H]3O[C@@H]2CC[C@@]1(C)O", "note": "[Brevenal]", "values": [{"measurement": "Nav1.5 A1Rel", "setting": "human Nav1.5 [1]; 10^-5 M, n = 4", "value": "0.77±0.05"}, {"measurement": "Nav1.5 τ 1inact", "setting": "human Nav1.5 [1]; 10^-5 M, n = 4", "value": "0.44 ± 0.01", "unit": "ms"}, {"measurement": "Nav1.5 τ 2inact", "setting": "human Nav1.5 [1]; 10^-5 M, n = 4", "value": "1.79 ± 0.06", "unit": "ms"}, {"measurement": "Nav1.5 A1Rel", "setting": "human Nav1.5 [1]; 10^-6 M, n = 4", "value": "0.77±0.07"}, {"measurement": "Nav1.5 τ 1inact", "setting": "human Nav1.5 [1]; 10^-6 M, n = 4", "value": "0.46 ± 0.01", "unit": "ms"}, {"measurement": "Nav1.5 τ 2inact", "setting": "human Nav1.5 [1]; 10^-6 M, n = 4", "value": "2.05 ± 0.21", "unit": "ms"}, {"measurement": "Nav1.5 A1Rel", "setting": "human Nav1.5 [1]; 10^-9 M, n = 4", "value": "0.73±0.07"}, {"measurement": "Nav1.5 τ 1inact", "setting": "human Nav1.5 [1]; 10^-9 M, n = 4", "value": "0.45 ± 0.01", "unit": "ms"}, {"measurement": "Nav1.5 τ 2inact", "setting": "human Nav1.5 [1]; 10^-9 M, n = 4", "value": "1.77 ± 0.34", "unit": "ms"}, {"measurement": "EC50", "setting": "human Nav1.5 [1]; inhibition of peak current, −20 mV, Vh −120 mV, n = 5", "value": 17, "unit": "nM"}, {"measurement": "Nav1.5 Ilate FC^Max (maximal fold change)", "setting": "human Nav1.5 [1]; not significant vs control, −20 mV, Vh −120 mV, n = 5", "value": "1.3 ± 0.2"}, {"measurement": "Nav1.5 Ipeak FC^Max (maximal fold change)", "setting": "human Nav1.5 [1]; test pulse −20 mV, Vh −120 mV, extracellular, n = 5", "value": "0.4 ± 0.1"}, {"measurement": "ΔV0.5 of Nav1.5 activation", "setting": "human Nav1.5 [2]; Brevenalo 10 μM, n = 7", "value": "0.1 ± 1.4", "unit": "mV"}, {"measurement": "relative Gmax of Nav1.5", "setting": "human Nav1.5 [2]; brevenal 10 μM extracellular, n = 7", "value": "0.3 ± 0.1"}, {"measurement": "Nav1.2 V0.5", "setting": "human Nav1.2; Ctro:Brevenali, intracellular brevenal 1 μM, n = 4, control −22.6 ± 1.9 mV", "value": "−43.9 ± 2.3", "unit": "mV"}, {"measurement": "decrease in Nav1.2 Gmax", "setting": "human Nav1.2; extracellular brevenal 10 μM", "value": "~ 40%"}, {"measurement": "Gmax^Rel of Nav1.2", "setting": "human Nav1.2; [3]", "value": "0.6 ± 0.1"}, {"measurement": "ΔV0.5 of Nav1.2 activation (depolarizing shift)", "setting": "human Nav1.2; [3]", "value": "6.1 ± 1.0", "unit": "mV"}, {"measurement": "leftward shift in Nav1.2 V0.5 vs control intracellular", "setting": "human Nav1.2; intracellular dialysis with brevenal 1 μM", "value": "~ 20 mV"}, {"measurement": "Nav1.7 yinf", "setting": "human Nav1.7; 10^-5 M, n = 4", "value": "0.07±0.01"}, {"measurement": "Nav1.7 τ inact", "setting": "human Nav1.7; 10^-5 M, n = 4", "value": "0.93 ± 0.09", "unit": "ms"}, {"measurement": "Nav1.7 yinf", "setting": "human Nav1.7; 10^-6 M, n = 4", "value": "0.07±0.01"}, {"measurement": "Nav1.7 τ inact", "setting": "human Nav1.7; 10^-6 M, n = 4", "value": "0.85 ± 0.06", "unit": "ms"}, {"measurement": "Nav1.7 yinf", "setting": "human Nav1.7; 10^-9 M, n = 4", "value": "0.07±0.01"}, {"measurement": "Nav1.7 τ inact", "setting": "human Nav1.7; 10^-9 M, n = 4", "value": "0.76 ± 0.05", "unit": "ms"}, {"measurement": "modulation of Nav1.7 currents", "setting": "human Nav1.7; up to 30 μM", "value": "did not modulate"}]}, {"smiles": "C=C(CO)C[C@@H]1C[C@H](O)[C@]2(C)OC3CC4OC5C[C@]6(C)O[C@]7(C)CCC8OC9C[C@]%10(C)OC%11C(C)=CC(=O)OC%11CC%10OC9C[C@@H](C)C8OC7CC6O[C@@]5(C)C/C=C\\C4OC3CC2O1", "note": "(stereo partly shown) [PbTx-3, Brevetoxin PbTx-3]", "values": [{"measurement": "Nav1.5 A1Rel", "setting": "human Nav1.5 [1]", "value": "0.82±0.05 and 0.72±0.01 and 0.71±0.06"}, {"measurement": "Nav1.5 A2Rel", "setting": "human Nav1.5 [1]", "value": "0.18±0.05 and 0.28±0.01 and 0.29±0.06"}, {"measurement": "Nav1.5 Ilate FC^Max (maximal fold change)", "setting": "human Nav1.5 [1]", "value": "1.8 ± 0.1"}, {"measurement": "Nav1.5 Ipeak FC^Max (maximal fold change)", "setting": "human Nav1.5 [1]", "value": "0.2 ± 0.1"}, {"measurement": "Nav1.5 τ 1inact", "setting": "human Nav1.5 [1]", "value": "0.46 ± 0.03 ms and 0.48 ± 0.06 ms and 0.45 ± 0.02 ms"}, {"measurement": "Nav1.5 τ 2inact", "setting": "human Nav1.5 [1]", "value": "2.42 ± 0.52 ms and 2.67 ± 0.78 ms and 1.48 ± 0.31 ms"}, {"measurement": "EC50", "setting": "human Nav1.5 [1]", "value": 2.2, "unit": "nM"}, {"measurement": "Gmax^Rel of Nav1.5", "setting": "human Nav1.5 [2]", "value": "1.2 ± 0.1"}, {"measurement": "depolarizing shift in V0.5 of Nav1.5", "setting": "human Nav1.5 [2]", "value": "8.7 ± 1.2", "unit": "mV"}, {"measurement": "depolarizing shift ΔV0.5 of Nav1.5", "setting": "human Nav1.5 [2]", "value": "10.8 ± 2.0", "unit": "mV"}, {"measurement": "relative Gmax of Nav1.5", "setting": "human Nav1.5 [2]", "value": "0.4 ± 0.04"}, {"measurement": "Gmax^Rel of Nav1.2", "setting": "human Nav1.2", "value": "0.9 ± 0.1"}, {"measurement": "Nav1.2 Ilate as % of Ipeak", "setting": "human Nav1.2", "value": "~ 40%"}, {"measurement": "ΔV0.5 of Nav1.2 activation", "setting": "human Nav1.2", "value": "1.5 ± 1.0", "unit": "mV"}, {"measurement": "Nav1.7 Ilate FC^Max (maximal fold change)", "setting": "human Nav1.7", "value": "0.6 ± 0.1"}, {"measurement": "Nav1.7 Ipeak FC^Max (maximal fold change)", "setting": "human Nav1.7", "value": "0.4 ± 0.1"}, {"measurement": "Nav1.7 yinf", "setting": "human Nav1.7", "value": "0.04±0.01"}, {"measurement": "Nav1.7 τ inact", "setting": "human Nav1.7", "value": "0.60 ± 0.05 ms and 0.63 ± 0.04 ms and 0.66 ± 0.11 ms"}, {"measurement": "IC50", "setting": "human Nav1.7; read-out: IC50, inhibition of Nav1.7 Ilate", "value": 34, "unit": "nM"}, {"measurement": "EC50", "setting": "human Nav1.7; read-out: Nav1.7 Ipeak EC50", "value": 0.16, "unit": "nM"}]}]}
